{"source": "patent US8598078B2", "about": "“Condensed anthran I lami de derivatives as insecticides” (Syngenta Crop Protection, LLC, priority 2007, dated 2013)", "key": {"[1]": {"system": "Thrips tabaci (onion thrips)", "assay": "Activity against Thrips tabaci (mixed population, feeding/residual contact activity, preventive), sunflower leaf discs", "format": "in vivo", "settings": "foliar, 144 h, read-out: activity (mortality and special effects)", "description": "Activity Against Thrips tabaci (Onion Thrips)\n(§1) (Mixed Population, Feeding/Residual Contact Activity, Preventive)\n(§2) Sunflower leaf discs were placed on agar in a 24-well microtiter plate and sprayed with test solutions. After drying, the leaf discs were infested with a thrips population of mixed ages. After an incubation period of 6 days, samples were checked for mortality and special effects (e.g. phytotoxicity)."}, "[2]": {"system": "Diabrotica balteata (corn root worm)", "assay": "Diabrotica balteata (larvicide, feeding/residual contact activity, preventive), artificial diet MTP", "format": "in vivo", "settings": "120 h, read-out: activity (larval mortality, antifeedant, growth regulation)", "description": "Diabrotica balteata (Corn Root Worm)\n(§3) (Larvicide, Feeding/Residual Contact Activity, Preventive)\n24-well microtiter plate (MTP) with artificial diet was treated with test solutions by pipetting. After drying, the MTP's were infested with larvae (L2) (6-10 per well). After an incubation period of 5 days, samples were checked for larval mortality, antifeedant and growth regulation."}, "[3]": {"system": "Heliothis virescens (tobacco budworm)", "assay": "Activity against Heliothis virescens (ovo-larvicide, feeding/contact activity, curative), eggs on artificial diet", "format": "in vivo", "settings": "read-out: activity (egg mortality, larval mortality, growth regulation)", "description": "Activity Against Heliothis virescens (Tobacco Budworm)\n(Ovo-Larvicide, Feeding/Contact Activity, Curative)\nEggs (0-24 h old) were placed in 24-well microtiter plate on artificial diet and treated with test solutions by pipetting. After an incubation period of 4 days, samples were checked for egg mortality, larval mortality, and growth regulation."}, "[4]": {"system": "Myzus persicae (green peach aphid)", "assay": "Activity against Myzus persicae (mixed population, feeding/residual contact activity, preventive), sunflower leaf discs", "format": "in vivo", "settings": "foliar, 144 h, read-out: activity (mortality and special effects)", "description": "(§4) Activity Against Myzus persicae (Green Peach Aphid)\nas §1\nas §2, with “an aphid” for “a thrips”"}, "[5]": {"system": "Spodoptera littoralis (Egyptian cotton leafworm)", "assay": "Activity against Spodoptera littoralis (larvicide, feeding/residual contact activity, preventive), cotton leaf discs", "format": "in vivo", "settings": "foliar, 72 h, read-out: activity (mortality, repellent effect, feeding behaviour, growth regulation)", "from_the_text": "Activity Against Spodoptera littoralis (Egyptian Cotton Leafworm)\nas §3\nCotton leaf discs were placed on agar in a 24-well microtiter plate and sprayed with test solutions. After drying, the leaf discs were infested with 5 L1 larvae. The samples were checked for mortality, repellent effect, feeding behaviour, and growth regulation 3 days after treatment."}, "[6]": {"system": "Nilaparvata lugens (brown rice planthopper)", "assay": "Activity against Nilaparvata lugens (larvicide, feeding/contact), rice seedlings", "format": "in vivo", "settings": "read-out: activity (mortality, growth regulation, effects on the F1 generation)", "description": "Activity Against Nilaparvata lugens (Brown Rice Planthopper)\n(Larvicide, Feeding/Contact)\nRice seedlings were treated with the diluted test solutions in a spray chamber. After drying, they were infested with 20 N3 nymphs (2 replicates). 6-12 days after the treatment samples were checked for mortality, growth regulation, and effects on the F, generation."}, "[7]": {"system": "Myzus persicae (green peach aphid)", "assay": "Activity against Myzus persicae (mixed population, systemic/feeding activity, curative), pea seedling roots in test solution", "format": "in vivo", "settings": "144 h, read-out: activity (mortality and special effects on the plant)", "from_the_text": "as §4\n(Mixed Population, Systemic/Feeding Activity, Curative)\nRoots of pea seedlings, infested with an aphid population of mixed ages, were placed directly in the test solutions. 6 days after introduction, samples were checked for mortality and special effects on the plant."}, "[8]": {"system": "Plutella xylostella (diamond back moth)", "assay": "Plutella xylostella (larvicide, feeding/residual contact activity, preventive), artificial diet MTP", "format": "in vivo", "settings": "120 h, read-out: activity (larval mortality, antifeedant, growth regulation)", "description": "Plutella xylostella (Diamond Back Moth)\nas §3\n24-well microtiter plate (MTP) with artificial diet was treated with test solutions by pipetting. After drying, the MTP's were infested with larvae (L2) (10-15 per well). After an incubation period of 5 days, samples were checked for larval mortality, antifeedant and growth regulation."}, "[9]": {"settings": "400 ppm, L2 larvae on treated artificial diet, 5 days incubation"}, "[10]": {"settings": "400 ppm, eggs 0-24 h old on artificial diet, 4 days incubation"}, "[11]": {"settings": "400 ppm, mixed-age aphids on sprayed sunflower leaf discs, 6 days incubation"}, "[12]": {"settings": "400 ppm, L1 larvae on sprayed cotton leaf discs, 3 days after treatment"}, "[13]": {"settings": "400 ppm, N3 nymphs on sprayed rice seedlings, 6-12 days after treatment"}}, "note": "Like-named read-outs stand apart in the source and are kept apart here.", "data": [{"smiles": "COc1cc(C(=O)Nc2c(C)cc3cn(C(=O)OC(C)(C)C)nc3c2C(=O)NC(C)C)n(-c2ncccc2Cl)n1", "values": [{"measurement": "melting point", "result": "161 to 162", "unit": "°C"}]}, {"smiles": "COc1cc(C(=O)Nc2c(C)cc3cn(Cc4ccccn4)nc3c2C(=O)NC(C)C)n(-c2ncccc2Cl)n1", "values": [{"measurement": "melting point", "result": "156 to 160", "unit": "°C"}]}, {"smiles": "CCCCCCCCN(C)C(=O)n1cc2cc(C)c(NC(=O)c3cc(OC)nn3-c3ncccc3Cl)c(C(=O)NC(C)C)c2n1", "values": [{"measurement": "melting point", "result": "66 to 70", "unit": "°C"}]}, {"smiles": "COc1cc(C(=O)Nc2c(C)cc3cn(-c4nc(Cl)nc(Cl)n4)nc3c2C(=O)NC(C)C)n(-c2ncccc2Cl)n1", "values": [{"measurement": "melting point", "result": "216 °C (dec.)"}]}, {"smiles": "COc1cc(C(=O)Nc2c(C)cc3cn(-c4nc(OC)nc(OC)n4)nc3c2C(=O)NC(C)C)n(-c2ncccc2Cl)n1", "values": [{"measurement": "melting point", "result": "226 to 230", "unit": "°C"}]}, {"smiles": "CCOC(=O)CSC(=O)n1cc2cc(C)c(NC(=O)c3cc(OC)nn3-c3ncccc3Cl)c(C(=O)NC(C)C)c2n1", "values": [{"measurement": "melting point", "result": "85 to 86", "unit": "°C"}]}, {"smiles": "COCn1ncc2cc(Cl)c(NC(=O)c3cc(C(F)(F)F)nn3-c3ncccc3Cl)c(C(=O)NC(C)C)c21", "note": "[P.2]", "values": [{"measurement": "mortality at 400 ppm", "setting": "[1]", "result": "> 80", "unit": "%"}, {"measurement": "mortality at 400 ppm", "setting": "[2]", "result": "> 80", "unit": "%"}, {"measurement": "mortality at 400 ppm", "setting": "[3]", "result": "> 80", "unit": "%"}, {"measurement": "mortality at 400 ppm", "setting": "[4]", "result": "> 80", "unit": "%"}, {"measurement": "mortality at 400 ppm", "setting": "[5]", "result": "> 80", "unit": "%"}, {"measurement": "mortality at 400 ppm", "setting": "[6]", "result": "> 80", "unit": "%"}, {"measurement": "mortality at 400 ppm", "setting": "[7]", "result": "> 80", "unit": "%"}, {"measurement": "mortality at 400 ppm", "setting": "[8]", "result": "> 80", "unit": "%"}]}, {"smiles": "COCn1ncc2cc(C)c(NC(=O)c3cc(OC)nn3-c3ncccc3Cl)c(C(=O)NC(C)C)c21", "note": "[P.19]", "values": [{"measurement": "mortality at 400 ppm", "setting": "[1]", "result": "> 80", "unit": "%"}, {"measurement": "mortality at 400 ppm", "setting": "[2]", "result": "> 80", "unit": "%"}, {"measurement": "mortality at 400 ppm", "setting": "[3]", "result": "> 80", "unit": "%"}, {"measurement": "mortality at 400 ppm", "setting": "[4]", "result": "> 80", "unit": "%"}, {"measurement": "mortality at 400 ppm", "setting": "[5]", "result": "> 80", "unit": "%"}, {"measurement": "mortality at 400 ppm", "setting": "[6]", "result": "> 80", "unit": "%"}, {"measurement": "mortality at 400 ppm", "setting": "[7]", "result": "> 80", "unit": "%"}, {"measurement": "mortality at 400 ppm", "setting": "[8]", "result": "> 80", "unit": "%"}]}, {"smiles": "CCCCCCCCCCCCCCCCOCCOCCOC(=O)n1cc2cc(C)c(NC(=O)c3cc(OC)nn3-c3ncccc3Cl)c(C(=O)NC(C)C)c2n1", "note": "[P.23]", "values": [{"measurement": "mortality at 400 ppm", "setting": "[1]; 400 ppm, mixed-age thrips on sprayed sunflower leaf discs, 6 days incubation", "result": "> 80", "unit": "%"}, {"measurement": "mortality at 400 ppm", "setting": "[2]; [9]", "result": "> 80", "unit": "%"}, {"measurement": "mortality at 400 ppm", "setting": "[3]; [10]", "result": "> 80", "unit": "%"}, {"measurement": "mortality at 400 ppm", "setting": "[4]; [11]", "result": "> 80", "unit": "%"}, {"measurement": "mortality at 400 ppm", "setting": "[5]; [12]", "result": "> 80", "unit": "%"}, {"measurement": "mortality at 400 ppm", "setting": "[6]; [13]", "result": "> 80", "unit": "%"}, {"measurement": "mortality at 400 ppm", "setting": "[8]; [9]", "result": "> 80", "unit": "%"}]}, {"smiles": "COc1cc(C(=O)Nc2c(C)cc3cn(C(=O)C(C)(C)C)nc3c2C(=O)NC(C)C)n(-c2ncccc2Cl)n1", "note": "[P.26]", "values": [{"measurement": "mortality at 400 ppm", "setting": "[2]", "result": "> 80", "unit": "%"}, {"measurement": "mortality at 400 ppm", "setting": "[3]", "result": "> 80", "unit": "%"}, {"measurement": "mortality at 400 ppm", "setting": "[4]", "result": "> 80", "unit": "%"}, {"measurement": "mortality at 400 ppm", "setting": "[5]", "result": "> 80", "unit": "%"}, {"measurement": "mortality at 400 ppm", "setting": "[6]", "result": "> 80", "unit": "%"}, {"measurement": "mortality at 400 ppm", "setting": "[7]", "result": "> 80", "unit": "%"}, {"measurement": "mortality at 400 ppm", "setting": "[8]", "result": "> 80", "unit": "%"}]}, {"smiles": "CCCCCCCCCCCCOCCOC(=O)n1cc2cc(C)c(NC(=O)c3cc(OC)nn3-c3ncccc3Cl)c(C(=O)NC(C)C)c2n1", "note": "[P.29]", "values": [{"measurement": "mortality at 400 ppm", "setting": "[2]; [9]", "result": "> 80", "unit": "%"}, {"measurement": "mortality at 400 ppm", "setting": "[3]; [10]", "result": "> 80", "unit": "%"}, {"measurement": "mortality at 400 ppm", "setting": "[4]; [11]", "result": "> 80", "unit": "%"}, {"measurement": "mortality at 400 ppm", "setting": "[5]; [12]", "result": "> 80", "unit": "%"}, {"measurement": "mortality at 400 ppm", "setting": "[6]; [13]", "result": "> 80", "unit": "%"}, {"measurement": "mortality at 400 ppm", "setting": "[7]; 400 ppm, systemic, roots of infested pea seedlings in test solution, 6 days", "result": "> 80", "unit": "%"}, {"measurement": "mortality at 400 ppm", "setting": "[8]; [9]", "result": "> 80", "unit": "%"}]}, {"smiles": "CCCC(C)(C)C(=O)n1cc2cc(C)c(NC(=O)c3cc(OC)nn3-c3ncccc3Cl)c(C(=O)NC(C)C)c2n1", "note": "[P.31]", "values": [{"measurement": "mortality at 400 ppm", "setting": "[1]", "result": "> 80", "unit": "%"}, {"measurement": "mortality at 400 ppm", "setting": "[2]", "result": "> 80", "unit": "%"}, {"measurement": "mortality at 400 ppm", "setting": "[3]", "result": "> 80", "unit": "%"}, {"measurement": "mortality at 400 ppm", "setting": "[4]", "result": "> 80", "unit": "%"}, {"measurement": "mortality at 400 ppm", "setting": "[5]", "result": "> 80", "unit": "%"}, {"measurement": "mortality at 400 ppm", "setting": "[6]", "result": "> 80", "unit": "%"}, {"measurement": "mortality at 400 ppm", "setting": "[7]", "result": "> 80", "unit": "%"}, {"measurement": "mortality at 400 ppm", "setting": "[8]", "result": "> 80", "unit": "%"}]}]}
